Test results published in PubChem BioAssay (NCI).
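Protocol summary: plate cells (96-well), add compound at 5 concentrations, incubate 48 h, interpolate endpoints linearly. At the TGI there is no net growth.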

Legend:
Experiment in all cases: NCI tumour cell line growth inhibition, 48 h
M14 melanoma = test system: M14 melanoma
HL-60(TB) leukemia = test system: HL-60(TB) leukemia
HS 578T breast = test system: HS 578T breast
UACC-257 melanoma = test system: UACC-257 melanoma
BT-549 breast = test system: BT-549 breast
PC-3 prostate = test system: PC-3 prostate
NCI-H460 lung = test system: NCI-H460 lung
MDA-N = test system: MDA-N
ACHN renal = test system: ACHN renal
HCT-116 colon = test system: HCT-116 colon
MDA-MB-435 = test system: MDA-MB-435
OVCAR-8 ovarian = test system: OVCAR-8 ovarian
CCRF-CEM leukemia = test system: CCRF-CEM leukemia
SF-268 CNS = test system: SF-268 CNS
IGROV1 ovarian = test system: IGROV1 ovarian
NCI-H23 lung = test system: NCI-H23 lung
COLO 205 colon = test system: COLO 205 colon
SNB-19 CNS = test system: SNB-19 CNS
A498 renal = test system: A498 renal
A549 NSCLC = test system: A549 NSCLC
TK-10 renal = test system: TK-10 renal
RPMI-8226 leukemia = test system: RPMI-8226 leukemia
SK-MEL-2 melanoma = test system: SK-MEL-2 melanoma
U251 CNS = test system: U251 CNS
SN12C renal = test system: SN12C renal
MDA-MB-231 breast = test system: MDA-MB-231 breast
UACC-62 melanoma = test system: UACC-62 melanoma
MALME-3M melanoma = test system: MALME-3M melanoma
MOLT-4 leukemia = test system: MOLT-4 leukemia
K-562 leukemia = test system: K-562 leukemia
CAKI-1 renal = test system: CAKI-1 renal
DU-145 prostate = test system: DU-145 prostate
NCI/ADR-RES ovarian = test system: NCI/ADR-RES ovarian
RXF 393 renal = test system: RXF 393 renal
NCI-H226 lung = test system: NCI-H226 lung
HOP-92 NSCLC = test system: HOP-92 NSCLC
HCT-15 colon = test system: HCT-15 colon
EKVX NSCLC = test system: EKVX NSCLC
UO-31 renal = test system: UO-31 renal
SK-OV-3 ovarian = test system: SK-OV-3 ovarian
SF-295 CNS = test system: SF-295 CNS
SK-MEL-28 melanoma = test system: SK-MEL-28 melanoma
SW-620 colon = test system: SW-620 colon
SK-MEL-5 melanoma = test system: SK-MEL-5 melanoma
786-0 renal = test system: 786-0 renal
KM12 colon = test system: KM12 colon
HCC-2998 colon = test system: HCC-2998 colon
HT29 colon = test system: HT29 colon
OVCAR-4 ovarian = test system: OVCAR-4 ovarian
T-47D breast = test system: T-47D breast
OVCAR-3 ovarian = test system: OVCAR-3 ovarian
SF-539 CNS = test system: SF-539 CNS
SNB-75 CNS = test system: SNB-75 CNS
OVCAR-5 ovarian = test system: OVCAR-5 ovarian
MCF7 breast = test system: MCF7 breast
HOP-62 NSCLC = test system: HOP-62 NSCLC
LOX IMVI melanoma = test system: LOX IMVI melanoma
NCI-H522 lung = test system: NCI-H522 lung

Structure (SMILES): N#Cc1c(SCc2ccccc2)nc(-c2ccccc2)[nH]c1=S
- TGI (M14 melanoma): 89.8 µM
- TGI (HL-60(TB) leukemia): > 100 µM
- TGI (HS 578T breast): 92 µM
- TGI (UACC-257 melanoma): > 100 µM
- TGI (BT-549 breast): 54.2 µM
- TGI (PC-3 prostate): 35.2 µM
- TGI (NCI-H460 lung): 51.4 µM
- TGI (MDA-N): 67.1 µM
- TGI (ACHN renal): 63.3 µM
- TGI (HCT-116 colon): 51.8 µM
- TGI (MDA-MB-435): 61.3 µM
- TGI (OVCAR-8 ovarian): 76.7 µM
- TGI (CCRF-CEM leukemia): > 100 µM
- TGI (SF-268 CNS): 57 µM
- TGI (IGROV1 ovarian): 79.4 µM
- TGI (NCI-H23 lung): 47.7 µM
- TGI (COLO 205 colon): 48.8 µM
- TGI (SNB-19 CNS): > 100 µM
- TGI (A498 renal): 63.8 µM
- TGI (A549 NSCLC): > 100 µM
- TGI (TK-10 renal): > 100 µM
- TGI (RPMI-8226 leukemia): 89.9 µM
- TGI (SK-MEL-2 melanoma): 32.4 µM
- TGI (U251 CNS): 45.1 µM
- TGI (SN12C renal): 82 µM
- TGI (MDA-MB-231 breast): > 100 µM
- TGI (UACC-62 melanoma): 56.6 µM
- TGI (MALME-3M melanoma): > 100 µM
- TGI (MOLT-4 leukemia): 85.2 µM
- TGI (K-562 leukemia): > 100 µM
- TGI (CAKI-1 renal): 79 µM
- TGI (DU-145 prostate): > 100 µM
- TGI (NCI/ADR-RES ovarian): 67.4 µM
- TGI (RXF 393 renal): 44.9 µM
- TGI (NCI-H226 lung): 70.3 µM
- TGI (HOP-92 NSCLC): 85.7 µM
- TGI (HCT-15 colon): 50.4 µM
- TGI (EKVX NSCLC): 93.6 µM
- TGI (UO-31 renal): 35 µM
- TGI (SK-OV-3 ovarian): 60.1 µM
- TGI (SF-295 CNS): 55.1 µM
- TGI (SK-MEL-28 melanoma): 55 µM
- TGI (SW-620 colon): 60 µM
- TGI (SK-MEL-5 melanoma): 54.8 µM
- TGI (786-0 renal): 48 µM
- TGI (KM12 colon): 34.5 µM
- TGI (HCC-2998 colon): 39.8 µM
- TGI (HT29 colon): 60.1 µM
- TGI (OVCAR-4 ovarian): > 100 µM
- TGI (T-47D breast): 80.2 µM
- TGI (OVCAR-3 ovarian): 36.3 µM
- TGI (SF-539 CNS): 56.6 µM
- TGI (SNB-75 CNS): 47.1 µM
- TGI (OVCAR-5 ovarian): 53.6 µM
- TGI (MCF7 breast): 71 µM
- TGI (HOP-62 NSCLC): 40.7 µM
- TGI (LOX IMVI melanoma): 63.9 µM

Structure (SMILES): CNc1ccc(-c2nc3cc(C)ccc3o2)cc1
- TGI (M14 melanoma): > 100 µM
- TGI (HL-60(TB) leukemia): > 100 µM
- TGI (HS 578T breast): > 100 µM
- TGI (UACC-257 melanoma): > 100 µM
- TGI (BT-549 breast): > 100 µM
- TGI (PC-3 prostate): > 100 µM
- TGI (NCI-H460 lung): > 100 µM
- TGI (MDA-N): > 100 µM
- TGI (ACHN renal): > 100 µM
- TGI (HCT-116 colon): > 100 µM
- TGI (MDA-MB-435): > 100 µM
- TGI (OVCAR-8 ovarian): > 100 µM
- TGI (CCRF-CEM leukemia): > 100 µM
- TGI (SF-268 CNS): > 100 µM
- TGI (IGROV1 ovarian): > 100 µM
- TGI (NCI-H23 lung): > 100 µM
- TGI (COLO 205 colon): > 100 µM
- TGI (SNB-19 CNS): > 100 µM
- TGI (A498 renal): 77.8 µM
- TGI (A549 NSCLC): > 100 µM
- TGI (TK-10 renal): > 100 µM
- TGI (RPMI-8226 leukemia): > 100 µM
- TGI (SK-MEL-2 melanoma): > 100 µM
- TGI (U251 CNS): > 100 µM
- TGI (SN12C renal): > 100 µM
- TGI (MDA-MB-231 breast): > 100 µM
- TGI (UACC-62 melanoma): > 100 µM
- TGI (MALME-3M melanoma): > 100 µM
- TGI (MOLT-4 leukemia): > 100 µM
- TGI (K-562 leukemia): > 100 µM
- TGI (CAKI-1 renal): > 100 µM
- TGI (DU-145 prostate): > 100 µM
- TGI (NCI/ADR-RES ovarian): > 100 µM
- TGI (RXF 393 renal): 79.8 µM
- TGI (NCI-H226 lung): > 100 µM
- TGI (HOP-92 NSCLC): > 100 µM
- TGI (HCT-15 colon): > 100 µM
- TGI (EKVX NSCLC): > 100 µM
- TGI (UO-31 renal): > 100 µM
- TGI (SK-OV-3 ovarian): 61 µM
- TGI (SF-295 CNS): > 100 µM
- TGI (SK-MEL-28 melanoma): > 100 µM
- TGI (SW-620 colon): > 100 µM
- TGI (SK-MEL-5 melanoma): > 100 µM
- TGI (786-0 renal): > 100 µM
- TGI (NCI-H522 lung): > 100 µM
- TGI (KM12 colon): > 100 µM
- TGI (HCC-2998 colon): > 100 µM
- TGI (HT29 colon): > 100 µM
- TGI (OVCAR-4 ovarian): > 100 µM
- TGI (T-47D breast): > 100 µM
- TGI (OVCAR-3 ovarian): > 100 µM
- TGI (SF-539 CNS): > 100 µM
- TGI (SNB-75 CNS): 33.7 µM
- TGI (OVCAR-5 ovarian): > 100 µM
- TGI (MCF7 breast): > 100 µM
- TGI (HOP-62 NSCLC): > 100 µM
- TGI (LOX IMVI melanoma): > 100 µM
